This is an account of results in patent US9615576B2, “Pesticidal compositions and processes related thereto” (Dow AgroSciences LLC, priority 2011, dated 2017).

Assay [1] deals with Beet Armyworm (BAW) (Spodoptera exigua). Description: Bioassays on Beet Armyworm (BAW), 128-well diet tray assay. In kind it is in vivo. The settings on record: 168 h, 50 μg/cm^2 test compound on artificial diet, second instar larvae, 25° C., five to seven days, average of eight wells, read-out: BAW Rating (% mortality). The procedure, abridged:
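Second-instar larvae (1–5 per well) on artificial diet surface-treated with 50 μg/cm^2 compound applied in 90:10 acetone-water and dried; eight wells per compound. Held 5–7 days at 25° C., 14:10 light-dark. Percent mortality scored per well and averaged over eight wells.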

In assay [2] the test system is Corn Earworm (CEW) (Helicoverpa zea). The experiment in a line: Bioassays on Corn Earworm (CEW), 128-well diet tray assay. As to conditions: 168 h, 50 μg/cm^2 test compound on artificial diet, second instar larvae, 25° C., five to seven days, average of eight wells, read-out: CEW Rating (% mortality). In kind it is in vivo. The procedure, abridged:
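Second-instar larvae (one to five per well) placed on artificial diet treated with 50 μg/cm^2 compound in 90:10 acetone-water, dried; eight wells per compound. Held at 25° C, 14:10 light-dark, five to seven days; percent mortality averaged over wells.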

In the case of `CN(C)c1ccc(CNC(=O)c2ccc(/C=C/C(c3cc(Cl)c(Cl)c(Cl)c3)C(F)(F)F)cc2Br)cn1` (stereo not shown) [AC96], the mortality at 50 µg/cm2 in assay [1] and in assay [2] was 0% in each case.

For `CN(C)NC(=O)CNC(=O)c1ccc(/C=C/C(c2cc(Cl)c(Cl)c(Cl)c2)C(F)(F)F)cc1Br` (stereo not shown) [AC112], the mortality at 50 µg/cm2 in assay [1] and in assay [2] was 50 to 100% in each case.

`N#Cc1cc(/C=C/C(c2cc(Cl)cc(Cl)c2)C(F)(F)F)ccc1-n1cnc(N)n1` (stereo not shown) [DC38]: the mortality at 50 µg/cm2 in assay [1] and in assay [2] was 50 to 100% each time.

For `O=C(NCc1ccc(Cl)nc1)c1ccc(/C=C/C(c2cc(Cl)c(Cl)c(Cl)c2)C(F)(F)F)cc1C(F)(F)F` (stereo not shown) [AC36], the mortality at 50 µg/cm2 in assay [1] and in assay [2] was 50 to 100% in each case.

As for `O=C(NC1CCN(C(=O)CC(F)(F)F)CC1)c1ccc(/C=C/C(c2cc(Cl)c(Cl)c(Cl)c2)C(F)(F)F)cc1Br` (stereo not shown) [AC104, (E)-2-bromo-4-(4,4,4-trifluoro-3-(3,4,5-trichlorophenyl)but-1-en-1-yl)-N-(1-(3,3,3-trifluoropropanoyl)piperidin-4-yl)benzamide], the mortality at 50 µg/cm2 in assay [1] and in assay [2] was 50 to 100% each time.

`Cc1cc(/C=C/C(c2cc(Cl)cc(Cl)c2)C(F)(F)F)ccc1C(=O)NCc1cccnc1` (stereo not shown) [AC14]: the mortality (commonly the share of the test organisms that died) at 50 µg/cm2 lay within 50 to 100% in assay [1] and 0 to 50% in assay [2].

Turning to `FC(F)(F)C(/C=C/c1ccc(-n2cncn2)cc1)c1ccc(Cl)cc1Cl` (stereo not shown) [DC13], the mortality at 50 µg/cm2 in assay [1] and in assay [2] was 50 to 100% each time.

Regarding `OC(/C=C/c1ccc(-n2cncn2)cc1)(c1cc(Cl)cc(Cl)c1)C(F)(F)F` (stereo not shown) [DC69, (E)-4-(4-(1H-1,2,4-triazol-1-yl)phenyl)-2-(3,5-dichlorophenyl)-1,1,1-trifluorobut-3-en-2-ol], the mortality at 50 µg/cm2 in assay [1] and in assay [2] was 0% in each case.

For the molecule `FC(F)(F)c1cc(Cl)cc(C(/C=C/c2ccc(-n3cncn3)cc2)C(F)(F)F)c1` (stereo not shown) [DC19], the mortality at 50 µg/cm2 in assay [1] and in assay [2] was 50 to 100% each time.

With `O=[N+]([O-])c1cc(/C=C/C(c2cc(Cl)cc(Cl)c2)C(F)(F)F)ccc1-n1cncn1` (stereo not shown) [DC54], the mortality at 50 µg/cm2 in assay [1] and in assay [2] was 0% throughout.

For `CC(C)(C)OC(=O)CNC(=O)c1ccc(/C=C/C(c2cc(Cl)c(Cl)c(Cl)c2)C(F)(F)F)cc1Br` (stereo not shown) [AC58], the mortality at 50 µg/cm2 in assay [1] and in assay [2] was 50 to 100% throughout.

`O=C(NC1CCN(CC(F)(F)F)CC1)c1ccc(/C=C/C(c2cc(Cl)c(Cl)c(Cl)c2)C(F)(F)F)cc1Br` (stereo not shown) [AC105, (E)-2-bromo-4-(4,4,4-trifluoro-3-(3,4,5-trichlorophenyl)but-1-en-1-yl)-N-(1-(2,2,2-trifluoroethyl)piperidin-4-yl)benzamide]: the mortality at 50 µg/cm2 in assay [1] and in assay [2] was 50 to 100% in each case.

For the molecule `O=C(Cc1ccc(Cl)nc1)NC1CCc2cc(/C=C/C(c3cc(Cl)c(F)c(Cl)c3)C(F)(F)F)ccc21` (stereo not shown) [BC9], the mortality at 50 µg/cm2 in assay [1] and in assay [2] was 50 to 100% in each case.

With `CCNC(=O)NCc1ccc(/C=C/C(c2cc(Cl)cc(Cl)c2)C(F)(F)F)cc1Cl` (stereo not shown) [CC31, (E)-1-(2-chloro-4-(3-(3,5-dichlorophenyl)-4,4,4-trifluorobut-1-en-1-yl)benzyl)-3-ethylurea], the figures for the mortality at 50 µg/cm2 in assay [1] and in assay [2] were 0 to 50% and 0%, respectively.

For the molecule `CCc1cc(/C=C/C(c2cc(Cl)c(F)c(Cl)c2)C(F)(F)F)ccc1C(=O)NCc1ccc(Cl)nc1` (stereo not shown) [AC72], the mortality at 50 µg/cm2 in assay [1] and in assay [2] was 50 to 100% each time.

For `N#Cc1cc(/C=C/C(c2cc(C(F)(F)F)cc(C(F)(F)F)c2)C(F)(F)F)ccc1-n1cncn1` (stereo not shown) [DC30], the mortality at 50 µg/cm2 in assay [1] and in assay [2] was 50 to 100% in each case.

`O=C(NCc1ccc(/C=C/C(c2cc(Cl)c(Cl)c(Cl)c2)C(F)(F)F)cc1F)C1CC1` (stereo not shown) [CC28]: the mortality at 50 µg/cm2 in assay [1] and in assay [2] was 50 to 100% in each case.

For the molecule `Cc1cc(/C=C/C(c2cc(Cl)cc(Cl)c2)C(F)(F)F)ccc1C(=O)NCc1ccc(Cl)nc1` (stereo not shown) [AC7], the mortality at 50 µg/cm2 in assay [1] and in assay [2] was 50 to 100% throughout.

As to `O=C(CC(F)(F)F)NCc1ccc(/C=C/C(c2cc(Cl)cc(Cl)c2)C(F)(F)F)cc1Cl` (stereo not shown) [CC9], the mortality at 50 µg/cm2 in assay [1] and in assay [2] was 50 to 100% throughout.

As to `Cc1cc(/C=C/C(c2cc(Cl)cc(Cl)c2)C(F)(F)F)ccc1C(=O)NCc1ccoc1` (stereo not shown) [AC20], the mortality at 50 µg/cm2 in assay [1] and in assay [2] was 50 to 100% throughout.

Take `CNC(=O)c1ccc(/C=C/C(c2cc(Cl)cc(Cl)c2)C(F)(F)F)cc1` (stereo not shown) [AC1]: the mortality at 50 µg/cm2 in assay [1] and in assay [2] was 0% each time.

As to `CC(=O)c1ncnn1-c1ccc(/C=C/C(c2cc(Cl)cc(Cl)c2)C(F)(F)F)cc1` (stereo not shown) [DC24], the mortality at 50 µg/cm2 in assay [1] and in assay [2] was 0% throughout.

Turning to `Cc1cc(/C=C/C(c2cc(Cl)c(Cl)c(Cl)c2)C(F)(F)F)ccc1C(=O)NC1CSC1` (stereo not shown) [AC23], the mortality at 50 µg/cm2 in assay [1] and in assay [2] was 50 to 100% throughout.

In the case of `O=C(CNC(=O)c1ccc(/C=C/C(c2cc(Cl)c(F)c(Cl)c2)C(F)(F)F)cc1Br)NCC(F)(F)F` (stereo not shown) [AC79, (E)-2-bromo-4-(3-(3,5-dichloro-4-fluorophenyl)-4,4,4-trifluorobut-1-en-1-yl)-N-(2-oxo-2-((2,2,2-trifluoroethyl)amino)ethyl)benzamide], the mortality at 50 µg/cm2 in assay [1] and in assay [2] was 50 to 100% each time.

Take `O=C(CC(F)(F)F)NCc1ncc(/C=C/C(c2cc(Cl)c(Cl)c(Cl)c2)C(F)(F)F)cc1Cl` (stereo not shown) [CC44, (E)-N-((3-chloro-5-(4,4,4-trifluoro-3-(3,4,5-trichlorophenyl)-but-1-en-1-yl)pyridin-2-yl)methyl)-3,3,3-trifluoropropanamide]: the mortality at 50 µg/cm2 in assay [1] and in assay [2] was 50 to 100% throughout.

As to `FC(F)(F)C(/C=C/c1ccc(-n2cncn2)cc1)c1cc(Cl)cc(Cl)c1Cl` (stereo not shown) [DC17], the mortality at 50 µg/cm2 in assay [1] and in assay [2] was 50 to 100% each time.

For the molecule `O=C(CC(F)(F)F)NCc1ccc(/C=C/C(c2cc(Cl)cc(Cl)c2)C(F)(F)F)cc1` (stereo not shown) [CC3], the mortality at 50 µg/cm2 in assay [1] and in assay [2] was 50 to 100% each time.

With `O=C(CNC(=O)c1ccc(/C=C/C(c2cc(Cl)c(Cl)c(Cl)c2)C(F)(F)F)cc1Cl)NCC(F)(F)F` (stereo not shown) [AC64, (E)-2-chloro-N-(2-oxo-2-((2,2,2-trifluoroethyl)amino)ethyl)-4-(4,4,4-trifluoro-3-(3,4,5-trichlorophenyl)but-1-en-1-yl)benzamide], the mortality at 50 µg/cm2 in assay [1] and in assay [2] was 50 to 100% throughout.

Take `CSc1ncnn1-c1ccc(/C=C/C(c2cc(Cl)cc(Cl)c2)C(F)(F)F)cc1` (stereo not shown) [DC25]: the mortality at 50 µg/cm2 in assay [1] and in assay [2] was 0% throughout.

In the case of `O=C(NCc1ccc(Cl)nc1)c1ccc(/C=C/C(c2cc(Cl)c(F)c(Cl)c2)C(F)(F)F)cc1Br` (stereo not shown) [AC63], the mortality at 50 µg/cm2 in assay [1] and in assay [2] was 50 to 100% throughout.

Regarding `O=C(NC1CSC1)c1ccc(/C=C/C(c2cc(Cl)cc(Cl)c2)C(F)(F)F)cc1F` (stereo not shown) [AC61], the mortality at 50 µg/cm2 in assay [1] and in assay [2] was 50 to 100% each time.

Turning to `O=C(NCc1ccc(Cl)nc1)c1ccc(/C=C/C(c2cc(Cl)cc(Cl)c2)C(F)(F)F)cc1Br` (stereo not shown) [AC46], the mortality at 50 µg/cm2 in assay [1] and in assay [2] was 50 to 100% each time.
